Data reported in publication PMC8326117 (International Journal of Biological Sciences, 2021).

How the values were obtained:
[1] = mouse, in vivo
ACE2 = ACE2 (Homo sapiens, UniProt Q9BYF1); test: LSPR assay, binding to ACE2
Chain of ACE2 (Q9BYF1 18-805): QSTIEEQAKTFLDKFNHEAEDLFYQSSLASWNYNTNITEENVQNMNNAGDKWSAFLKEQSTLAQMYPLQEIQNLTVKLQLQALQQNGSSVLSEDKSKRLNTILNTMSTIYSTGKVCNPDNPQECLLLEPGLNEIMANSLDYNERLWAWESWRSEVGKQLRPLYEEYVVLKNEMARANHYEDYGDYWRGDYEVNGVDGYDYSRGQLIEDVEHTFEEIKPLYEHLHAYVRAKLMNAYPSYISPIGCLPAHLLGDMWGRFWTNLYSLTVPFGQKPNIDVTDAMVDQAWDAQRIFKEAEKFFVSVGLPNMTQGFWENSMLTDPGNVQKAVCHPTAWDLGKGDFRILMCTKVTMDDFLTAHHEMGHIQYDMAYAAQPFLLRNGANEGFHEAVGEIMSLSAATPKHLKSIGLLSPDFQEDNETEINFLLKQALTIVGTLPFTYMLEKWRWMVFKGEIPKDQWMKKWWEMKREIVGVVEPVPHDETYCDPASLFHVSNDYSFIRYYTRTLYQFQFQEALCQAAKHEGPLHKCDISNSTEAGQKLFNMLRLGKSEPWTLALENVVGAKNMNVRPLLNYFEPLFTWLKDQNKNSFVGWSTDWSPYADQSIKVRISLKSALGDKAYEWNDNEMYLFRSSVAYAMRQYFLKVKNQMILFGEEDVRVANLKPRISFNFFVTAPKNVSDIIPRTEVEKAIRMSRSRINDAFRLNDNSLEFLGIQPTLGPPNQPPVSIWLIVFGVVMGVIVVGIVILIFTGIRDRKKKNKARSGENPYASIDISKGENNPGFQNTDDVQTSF

With `CC(C)C[C@H](NC(=O)[C@@H]1CCCN1C(=O)[C@H](Cc1ccccc1)NC(=O)[C@H](Cc1ccc(O)cc1)NC(=O)[C@H](CS)NC(=O)[C@H](CC(N)=O)NC(=O)[C@H](Cc1ccccc1)NC(=O)CNC(=O)[C@H](CCC(=O)O)NC(=O)[C@@H](NC(=O)[C@H](CCCCN)NC(=O)[C@H](CCCCN)NC(=O)[C@H](CCCCN)NC(=O)[C@H](CCCCN)NC(=O)[C@H](CCCCN)NC(=O)[C@@H](N)CCCCN)C(C)C)C(=O)N[C@@H](CCC(N)=O)C(=O)N[C@@H](CO)C(=O)O` [AYp28] the “distribution in livers and kidneys” value [1] was “not in the kidneys and livers”, the “distribution in lungs and small intestine” value [1] was “preferentially distributed in the lungs and intestine” and the cytotoxicity (HEK293T/hACE2 cells) was “no significant cytotoxicity”. It also gave a Kd (ACE2) of 47.6 nM, a koff (ACE2; pH 7.4) of 0.000205 s⁻¹ and a kon (ACE2; pH 7.4) of 4310 M⁻¹ s⁻¹.
